Laboratory results as given in the supplement of paper PMC10307832.

Compound: CN(NC(=O)CC(=O)NN(C)C(=S)c1ccccc1)C(=S)c1ccccc1 [Elesclomol]
Assay: relative viability (nuclei count vs DMSO), 5 days (fraction); higher = more cells survive
Outline: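 Cells of lung cancer lines were placed in 1536-well plates and kept overnight at 37 °C. Pinning then delivered five library-drug doses (not always all listed), spaced by √10, onto plates anchored with vehicle, and the cells were left 5 days without changing medium. One step fixed, permeabilised and stained them with Hoechst, and MetaXpress counted nuclei in 4× images. Viability, as a median over plates, is treated-well nuclei divided by vehicle-well nuclei, with acceptance only at control CV below 25% and at least one doubling.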

Cell Line | relative viability (0.003162 µM) | relative viability (0.01 µM) | relative viability (0.03162 µM) | relative viability (0.1 µM)
201T | 0.953 | 0.884 | 0.86 | 0.61
A549 | 0.912 | 0.417 | 0.24 | 0.0637
A-427 | 0.963 | 0.554 | 0.529 | 0.18
ABC-1 | 0.239 | 0.252 | 0.201 | 0.328
BEN | 0.937 | 0.677 | 0.344 | 0.307
CAL-12T | 0.939 | 0.442 | 0.269 | 0.0778
COR-L23 | 0.969 | 0.629 | 0.461 | 0.256
COR-L 105 | 0.85 | 0.472 | 0.344 | 0.221
ChaGo-K-1 | 0.947 | 0.952 | 0.663 | 0.199
EKVX | 0.912 | 0.662 | 0.379 | 0.203
EMC-BAC-2 | 1.05 | 0.548 | 0.602 | 0.557
EPLC-272H | 0.876 | 0.514 | 0.534 | 0.128
H3255 | 0.879 | 0.785 | 0.566 | 0.442
HARA | 0.883 | 0.879 | 0.919 | 0.293
HCC-15 | 0.964 | 0.828 | 0.626 | 0.231
HCC-44 | 0.968 | 0.935 | 0.831 | 0.764
HCC-78 | 0.87 | 1 | 0.861 | 0.926
HCC-366 | 1.04 | 1.08 | 0.924 | 0.202
HCC-827 | 1.05 | 1.02 | 1.02 | 1
HOP-62 | 1.01 | 0.83 | 0.89 | 0.299
IA-LM | 0.855 | 0.374 | 0.0911 | 0.0299
LC-2-ad | 0.963 | 0.568 | 0.241 | 0.19
LCLC-97TM1 | 0.735 | 0.844 | 0.738 | 0.0887
LCLC-103H | 1 | 0.856 | 0.993 | 0.842
LK-2 | 0.796 | 0.715 | 0.507 | 0.157
LOU-NH91 | 1.06 | 0.856 | 0.798 | 0.764

Cell Line | relative viability (0.003162 µM) | relative viability (0.01 µM) | relative viability (0.03162 µM) | relative viability (0.1 µM)
LU99A | 0.919 | 0.811 | 0.986 | 0.544
LXF-289 | 1.03 | 0.956 | 0.95 | 0.772
NCI-H23 | 1 | 0.566 | 0.786 | 0.128
NCI-H322M | 0.893 | 0.29 | 0.363 | 0.266
NCI-H358 | 0.752 | 0.225 | 0.215 | 0.196
NCI-H441 | 1.06 | 0.945 | 0.55 | 0.179
NCI-H460 | 1.01 | 0.825 | 0.557 | 0.0845
NCI-H520 | 1.03 | 0.87 | 0.584 | 0.134
NCI-H522 | 1.03 | 0.877 | 0.801 | 0.53
NCI-H596 | 0.983 | 0.842 | 0.865 | 0.243
NCI-H647 | 1 | 0.617 | 0.377 | 0.062
NCI-H650 | 1 | 0.696 | 0.332 | 0.249
NCI-H661 | 0.91 | 0.807 | 0.374 | 0.298
NCI-H727 | 1.04 | 0.699 | 0.494 | 0.301
NCI-H838 | 0.959 | 0.883 | 0.792 | 0.454
NCI-H1355 | 1.02 | 0.685 | 0.593 | 0.297
NCI-H1395 | 0.972 | 0.475 | 0.279 | 0.265
NCI-H1437 | 0.879 | 0.635 | 0.504 | 0.47
NCI-H1563 | 0.786 | 0.675 | 0.651 | 0.542
NCI-H1650 | 0.394 | 0.281 | 0.16 | 0.114
NCI-H1651 | 0.903 | 0.954 | 0.612 | 0.369
NCI-H1666 | 1.01 | 0.933 | 0.755 | 0.542
NCI-H1703 | 0.273 | 0.173 | 0.0832 | 0.101
NCI-H1734 | 0.976 | 0.794 | 0.32 | 0.127
NCI-H1755 | 1.01 | 0.965 | 0.997 | 0.801
NCI-H1792 | 0.916 | 0.51 | 0.762 | 0.513

Cell Line | relative viability (0.003162 µM) | relative viability (0.01 µM) | relative viability (0.03162 µM) | relative viability (0.1 µM)
NCI-H1793 | 0.893 | 0.635 | 0.892 | 0.251
NCI-H1915 | 0.994 |  | 1 | 0.606
NCI-H1944 | 1.05 | 0.948 | 0.959 | 0.578
NCI-H1975 | 0.988 | 0.732 | 0.278 | 0.181
NCI-H1993 | 0.978 | 0.871 | 0.782 | 0.543
NCI-H2009 | 0.889 | 0.416 | 0.164 | 0.124
NCI-H2023 | 0.907 | 0.305 | 0.204 | 0.0874
NCI-H2085 | 0.998 | 0.873 | 0.569 | 0.385
NCI-H2087 | 0.987 | 0.743 | 0.624 | 0.313
NCI-H2126 | 0.962 | 0.934 | 0.807 | 0.556
NCI-H2170 | 0.967 | 0.938 | 0.986 | 0.657
NCI-H2228 | 0.923 | 0.881 | 0.435 | 0.078
NCI-H2342 | 0.865 | 1.02 | 0.571 | 0.612
NCI-H2347 | 1.01 | 0.918 | 0.858 | 0.616
NCI-H2405 | 1.08 | 0.581 | 0.362 | 0.384
NCI-H3122 | 0.987 | 1 | 0.957 | 0.349
PC-3 [JPC-3] | 1.06 | 0.892 | 1.04 | 0.665
PC-14 | 0.923 | 0.261 | 0.0507 | 0.039
RERF-LC-KJ | 0.816 | 0.493 | 0.316 | 0.311
SK-LU-1 | 1.07 | 0.779 | 0.659 | 0.287
SK-MES-1 | 1.05 | 0.76 | 0.794 | 0.489
SW 900 | 0.871 | 0.701 | 0.251 | 0.0829
SW 1573 | 0.795 | 0.267 | 0.121 | 0.0819
UMC-11 | 1.05 | 0.939 | 0.709 | 0.612
